One compound from patent US20160129005A1, “ADENINE DERIVATIVES HAVING IMMUNOMODULATING ANTI-INFLAMMATORY AND ANALGESIC ACTIVITY” (MEDESTEA RESEARCH & PRODUCTION S.p.A., priority 2011, published 2016) can be followed below.

Experiment [1] relates to mice with the R117H CFTR(CF) mutation and wild-type (WT) mice. The experiment is described as follows: Cystic fibrosis: intratracheal LPS in R117H CFTR and WT mice. Type of experiment: in vivo, mouse. The method, then:
For the experiments, 32 mice were used with the R117H CFTR(CF) mutation, responsible for the onset of the inflammatory disorder, and 18 wild-type (WT) mice with a genetic background of the C57BL/6 type.
The trachea was then intubated with a MicroSprayer (PennCentury), capable of vaporizing the drug as aerosol at a concentration of 25 μl of […] 300 μM or of vehicle. The mice were weighed daily.
On day 4, all the mice received the inflammatory stimulus (1 μg of LPS) together with […] or vehicle; separate experiments were conducted, inducing only the inflammatory stimulus in the mice. About 24 hours after administration of LPS, the mice were sacrificed and samples of BALF were collected, from which the cellular component was isolated, and was analysed under the microscope for characterizing its leukocyte phenotype.

For another experiment, the system named is naive CD4 cells. The experiment is described as follows: Induction of T regulatory (Treg) cells from naive CD4 cells. Type of experiment: cell-based, mouse. The note with it: anti-CD3 stimulation 96 h, increasing concentrations; FIG. 22. The procedure: We evaluated the capacity of […] to induce in vitro the differentiation of naive CD4 cells into immunosuppressive Treg cells characterized by the phenotype CD4+CD25+ and by expression of the Foxp3 transcription factor. […] The naive CD4 cells were stimulated with anti-CD3 antibodies for 96 h in the presence of increasing concentrations of […].

The subject of another experiment is U937 cells. As to the kind of experiment: Secretion of pro-inflammatory cytokines by LPS-stimulated U937 cells (ELISA). Type of experiment: cell-based, human. The settings on record: drug with LPS (12 hrs) or added after LPS for 2 or 6 hours, FIG. 1. The procedure: The production in vitro of MCP-1 (monocyte chemoattractant protein-1), TNF-α (tumour necrosis factor alpha), IL-6 (interleukin 6) was analysed. These cytokines induce the production of other cytokines that attract leukocytes to the site of inflammation, potentiating the immune response. This amplifies leukocyte “recruitment” at the site of inflammation, promoting “extravasation” of immune cells from the peripheral circulation.
The U937 cells were plated at a density of 250 000 cells/ml and left in quiescence for 24 hours.
The drug was added in fresh medium, simultaneously or after removal of LPS from the culture. The cells were kept in an incubator at 37° C. with supply of CO2 at 5%.
Analysis of the production of growth factors was performed on the cellular supernatants collected, by ELISA assay using commercial kits (Human TNF-α Quantikine ELISA Kit code DTA00C, R&D Systems assay. Human IL-6 Quantikine ELISA Kit code D6050, R&D Systems assay. Human CCL2/MCP-1 Quantikine ELISA Kit code DCP00, R&D Systems assay).

The next experiment relates to Lewis rats. The experiment is described as follows: Acute experimental autoimmune encephalomyelitis (MBP/CFA). Type of experiment: in vivo, rat. The settings on record: for peak of neurologic damage (neuroclinical score 0-5): vehicle peak 3 (day 13). The procedure: We investigated whether treatment with […], at the onset of the acute form of experimental autoimmune encephalitis (EAE), the murine model of human multiple sclerosis, could induce a functional recovery.
The motor and sensory deficits were classified according to previously assigned “neuronal” clinical scores.
Adult female Lewis rats (200-250 g) were immunized with an intradermal injection, in the hind limbs, of […] of myelin basic protein (MBP) dissolved in 50 microlitres of emulsified saline solution in 50 microlitres of complete Freund adjuvant (CFA).
Starting from the fifth day post-inoculation, the rats were treated daily with […] (0.1 or 1 mg/kg per os) or with the placebo (vehicle).
The animals were monitored daily until day 21 for clinical symptoms; the range of neuroclinical scores extended from 0 (no neurologic symptom) up to a maximum of 5 (complete paralysis of all legs or death).
Inoculation with the MBP/CFA emulsion led to a very evident loss of body weight; this was not changed by the treatment with Immuflam. The animals were divided into three groups of 15: group 1 Immuflam 0.1 mg/kg, group 2 Immuflam 1 mg/kg, group 3 vehicle. They were all treated daily per os from day 5 until sacrifice.

For the compound `C=C(C=O)OC(C=O)n1cnc2c(N)ncnc21` (centres unmarked) [2-[1-(6-aminopurin-9-yl)-2-oxoethoxy]prop-2-enal], the “reduction in concentrations of IL-1β, IL-6, TNFα and the murine analogue of IL-8 in BAL” value in experiment [1] (CF and WT mice, FIGS. 42B and C) was 56%-83%. Besides, the “decrease in neutrophil percentage relative to vehicle” value in experiment [1] (CF mice, intratracheal LPS, 25 μl of 300 μM aerosol, p<0.001, FIG. 42A) is recorded as 60%. Further, the “decrease in the percentage of neutrophils” value in experiment [1] (WT mice, intratracheal LPS, compared to 89% for vehicle, p<0.01) is 47%. The body weight result in experiment [1] (within first 24 hours, vehicle lost 4-8%, FIG. 41) is “no change in their body weight”. For the same compound, the “differentiation of naive CD4 cells into Treg cells (CD4+CD25+ Foxp3)” value in the experiment on naive CD4 cells is “induced the differentiation of Treg cells in a manner that was dependent on the dose used”. Besides, in the experiment with U937 cells, the “cellular secretion of IL-6” value is “reduces the cellular secretion”, the “cellular secretion of MCP-1” value is “reduces the cellular secretion” and the “cellular secretion of TNF-α” value is given as “reduces the cellular secretion”. Moreover, in the experiment with Lewis rats (between day 12 and day 15, FIG. 4), the “clinical scores vs vehicle groups” value is reported as “significant differences”. The “peak of neurologic damage (neuroclinical score 0-5)” value in the experiment on Lewis rats (group 1, 0.1 mg/kg per os daily from day 5) turned out to be 2.3. In the experiment with Lewis rats (group 2, 1 mg/kg per os daily from day 5), the “peak of neurologic damage (neuroclinical score 0-5)” value came to 1.5.
